Reference: ChEMBL document CHEMBL1909046, “DrugMatrix in vitro pharmacology data”

Key:
Cytochrome P450 2C19 = Cytochrome P450 2C19 (Homo sapiens, UniProt P33261); conditions: bti-tn-5b1-4; note: in other assays of this panel Not Active means under 50% inhibition at 10 µM
[1] = biological target: Voltage-gated inwardly rectifying potassium channel KCNH2 (Homo sapiens, UniProt Q12809); conditions: hek293; note: in other assays of this panel Not Active means under 50% inhibition at 10 µM
Carbonic anhydrase 2 = Carbonic anhydrase 2 (Homo sapiens, UniProt P00918); experiment: DRUGMATRIX: Carbonic Anhydrase II enzyme inhibition (substrate: 4-Nitrophenyl acetate (4-NPA)); assay type: tissue-based, Erythrocyte; conditions: erythrocyte; Not Active = under 50% inhibition at 10 µM
Neutrophil elastase = biological target: T1, Neutrophil elastase (Homo sapiens, UniProt P08246); assay type: tissue-based;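 note: inhibition of neutrophil elastase enzyme activity, measured with a p-nitroanilide-linked peptide substrate; in other assays of this panel Not Active means under 50% inhibition at 10 µM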
T1 sequence (P08246 whole entry): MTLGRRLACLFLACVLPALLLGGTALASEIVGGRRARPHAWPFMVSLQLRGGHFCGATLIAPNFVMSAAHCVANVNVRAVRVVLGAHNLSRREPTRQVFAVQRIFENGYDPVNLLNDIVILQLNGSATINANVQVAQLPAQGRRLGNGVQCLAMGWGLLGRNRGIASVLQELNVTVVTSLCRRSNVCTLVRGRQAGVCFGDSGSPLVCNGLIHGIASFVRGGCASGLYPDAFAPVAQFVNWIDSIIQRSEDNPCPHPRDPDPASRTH

[2] = biological target: T2, Cholecystokinin receptor type A (Homo sapiens, UniProt P32238); assay type: cell membranes, Membrane; conditions: 1321-n1; note: in other assays of this panel Not Active means under 50% inhibition at 10 µM
T2 sequence (P32238 whole entry): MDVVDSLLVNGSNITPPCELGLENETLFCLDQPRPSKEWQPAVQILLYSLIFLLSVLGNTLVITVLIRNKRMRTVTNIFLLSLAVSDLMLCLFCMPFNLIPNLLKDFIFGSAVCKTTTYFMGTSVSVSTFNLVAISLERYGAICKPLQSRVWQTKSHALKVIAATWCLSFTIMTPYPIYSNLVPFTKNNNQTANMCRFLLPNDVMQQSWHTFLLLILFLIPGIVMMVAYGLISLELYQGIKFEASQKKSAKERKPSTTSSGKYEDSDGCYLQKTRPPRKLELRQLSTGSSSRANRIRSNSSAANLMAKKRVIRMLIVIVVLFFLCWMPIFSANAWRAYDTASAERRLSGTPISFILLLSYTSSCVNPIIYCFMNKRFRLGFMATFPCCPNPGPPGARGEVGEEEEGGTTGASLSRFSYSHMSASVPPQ

[3] = DRUGMATRIX: GABAA, Muscimol, Central radioligand binding (ligand: [3H] Muscimol); assay type: cell membranes, Rattus norvegicus, Wistar, Brain, Membrane; conditions: Not Active = under 50% inhibition at 10 µM
Mu-type opioid receptor = Mu-type opioid receptor (Homo sapiens, UniProt P35372); experiment: DRUGMATRIX: Opiate mu (OP3, MOP) radioligand binding (ligand: [3H] Diprenorphine); assay type: cell membranes, CHO-K1, Membrane; conditions: Not Active = under 50% inhibition at 10 µM
Vasopressin V1a receptor = Vasopressin V1a receptor (Homo sapiens, UniProt P37288); assay type: cell membranes, Membrane; conditions: hek293; note: in other assays of this panel Not Active means under 50% inhibition at 10 µM
Vasopressin V1a receptor, sequence (P37288 whole entry): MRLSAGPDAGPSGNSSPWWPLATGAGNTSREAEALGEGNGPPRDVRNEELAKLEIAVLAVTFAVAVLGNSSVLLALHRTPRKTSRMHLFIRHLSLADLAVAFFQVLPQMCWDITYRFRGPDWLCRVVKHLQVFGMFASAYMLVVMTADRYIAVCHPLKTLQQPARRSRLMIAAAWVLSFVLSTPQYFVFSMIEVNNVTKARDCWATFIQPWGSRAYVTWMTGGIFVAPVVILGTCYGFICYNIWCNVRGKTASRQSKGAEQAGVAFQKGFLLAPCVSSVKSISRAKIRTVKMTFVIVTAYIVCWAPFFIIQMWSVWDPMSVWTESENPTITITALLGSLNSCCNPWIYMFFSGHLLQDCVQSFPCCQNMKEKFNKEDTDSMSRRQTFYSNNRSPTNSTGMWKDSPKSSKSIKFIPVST

Voltage-gated inwardly rectifying potassium channel KCNH2, sequence (Q12809 whole entry): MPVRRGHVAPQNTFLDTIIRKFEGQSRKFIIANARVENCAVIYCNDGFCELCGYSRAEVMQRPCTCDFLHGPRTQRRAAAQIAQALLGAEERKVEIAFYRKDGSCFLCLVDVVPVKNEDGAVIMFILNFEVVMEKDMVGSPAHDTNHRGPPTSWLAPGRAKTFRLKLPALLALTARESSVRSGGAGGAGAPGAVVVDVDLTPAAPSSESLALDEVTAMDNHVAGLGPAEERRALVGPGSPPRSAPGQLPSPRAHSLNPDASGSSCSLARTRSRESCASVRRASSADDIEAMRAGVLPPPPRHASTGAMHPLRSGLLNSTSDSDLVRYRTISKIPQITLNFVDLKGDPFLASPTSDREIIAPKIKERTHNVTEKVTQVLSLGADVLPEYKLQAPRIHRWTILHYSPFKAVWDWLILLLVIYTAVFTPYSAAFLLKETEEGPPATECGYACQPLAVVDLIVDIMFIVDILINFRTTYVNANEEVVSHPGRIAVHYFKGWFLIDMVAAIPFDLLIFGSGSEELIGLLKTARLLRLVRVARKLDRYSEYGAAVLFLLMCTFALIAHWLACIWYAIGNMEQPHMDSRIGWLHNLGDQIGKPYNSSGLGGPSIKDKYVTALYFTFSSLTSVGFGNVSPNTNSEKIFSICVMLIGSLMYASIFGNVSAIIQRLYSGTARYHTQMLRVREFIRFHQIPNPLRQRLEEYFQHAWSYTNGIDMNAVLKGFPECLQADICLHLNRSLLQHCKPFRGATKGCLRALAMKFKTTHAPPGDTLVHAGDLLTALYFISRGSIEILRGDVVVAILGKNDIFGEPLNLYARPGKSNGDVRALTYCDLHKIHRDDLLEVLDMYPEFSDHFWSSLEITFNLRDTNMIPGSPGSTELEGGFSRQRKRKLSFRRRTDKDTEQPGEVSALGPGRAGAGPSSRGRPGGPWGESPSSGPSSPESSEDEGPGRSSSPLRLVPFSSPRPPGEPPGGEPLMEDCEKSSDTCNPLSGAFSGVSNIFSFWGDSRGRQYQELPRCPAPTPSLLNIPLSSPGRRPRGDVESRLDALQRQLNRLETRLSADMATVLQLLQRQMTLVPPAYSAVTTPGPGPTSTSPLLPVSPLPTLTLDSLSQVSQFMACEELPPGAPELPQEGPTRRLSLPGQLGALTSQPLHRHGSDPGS
Mu-type opioid receptor, sequence (P35372 whole entry): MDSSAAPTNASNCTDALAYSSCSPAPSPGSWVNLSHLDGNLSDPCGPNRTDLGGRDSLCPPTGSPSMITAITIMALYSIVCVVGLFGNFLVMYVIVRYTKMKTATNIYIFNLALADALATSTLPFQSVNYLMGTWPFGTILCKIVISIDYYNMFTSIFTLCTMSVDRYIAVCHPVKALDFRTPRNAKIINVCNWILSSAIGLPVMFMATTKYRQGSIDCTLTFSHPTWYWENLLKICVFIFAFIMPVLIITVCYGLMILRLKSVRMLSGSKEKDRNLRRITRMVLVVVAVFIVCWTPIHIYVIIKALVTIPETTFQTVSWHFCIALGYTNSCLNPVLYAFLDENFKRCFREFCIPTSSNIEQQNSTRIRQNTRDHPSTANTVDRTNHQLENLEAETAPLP
Cytochrome P450 2C19, sequence (P33261 whole entry): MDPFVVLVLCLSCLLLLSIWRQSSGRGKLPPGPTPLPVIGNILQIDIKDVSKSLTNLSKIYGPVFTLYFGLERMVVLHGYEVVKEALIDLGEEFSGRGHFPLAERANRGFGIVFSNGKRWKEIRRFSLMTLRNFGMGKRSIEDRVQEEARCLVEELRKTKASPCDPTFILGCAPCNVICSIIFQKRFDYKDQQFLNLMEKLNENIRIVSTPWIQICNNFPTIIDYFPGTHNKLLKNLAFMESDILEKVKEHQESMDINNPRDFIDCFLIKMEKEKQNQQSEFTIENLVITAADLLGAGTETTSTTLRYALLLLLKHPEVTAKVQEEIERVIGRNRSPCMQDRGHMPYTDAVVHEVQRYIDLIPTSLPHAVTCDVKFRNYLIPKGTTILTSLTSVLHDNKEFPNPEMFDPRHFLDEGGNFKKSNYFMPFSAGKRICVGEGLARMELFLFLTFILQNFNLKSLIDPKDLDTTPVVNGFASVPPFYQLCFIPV

With `COc1cccc2c1C(=O)c1c(O)c3c(c(O)c1C2=O)C[C@@](O)(C(=O)CO)C[C@@H]3O[C@H]1C[C@H](N)[C@H](O)[C@H](C)O1` [DOXORUBICIN] the IC50 (Cytochrome P450 2C19) was “Not Active”, the Ki (Cytochrome P450 2C19) was “Not Active” and the IC50 [1] was “Not Active”. For the same compound, the Ki [1] was “Not Active”, the IC50 (Carbonic anhydrase 2) was “Not Active” and the IC50 (Neutrophil elastase) was “Not Active”. The IC50 [2] was “Not Active”, the IC50 [3] was “Not Active” and the Ki [3] was “Not Active”. For the same compound, the IC50 (Mu-type opioid receptor; cho-k1) was “Not Active” and the IC50 (Vasopressin V1a receptor) was “Not Active”.
For `COc1cccc2c1C(=O)c1c(O)c3c(c(O)c1C2=O)C[C@@](O)(C(=O)CO)C[C@@H]3O[C@H]1C[C@H](N)[C@@H](O)[C@H](C)O1` [EPIRUBICIN], the IC50 (Cytochrome P450 2C19) was “Not Active”, the Ki (Cytochrome P450 2C19) was “Not Active” and the IC50 [1] was “Not Active”. The Ki [1] was “Not Active”, the IC50 (Carbonic anhydrase 2) was “Not Active” and the IC50 (Neutrophil elastase) was “Not Active”. For the same compound, the IC50 [2] was “Not Active”, the IC50 [3] was “Not Active” and the Ki [3] was “Not Active”. For the same compound, the IC50 (Mu-type opioid receptor; cho-k1) was “Not Active” and the IC50 (Vasopressin V1a receptor) was “Not Active”.
With `C[C@]12CC[C@@H]3c4ccc(OC(=O)c5ccccc5)cc4CC[C@H]3[C@@H]1CC[C@@H]2O` [ESTRADIOL BENZOATE] the IC50 (Cytochrome P450 2C19) was “Not Active”, the Ki (Cytochrome P450 2C19) was “Not Active” and the IC50 [1] was “Not Active”. The Ki [1] was “Not Active”, the IC50 (Carbonic anhydrase 2) was “Not Active” and the IC50 (Neutrophil elastase) was “Not Active”. The IC50 [2] was “Not Active”, the IC50 [3] was “Not Active” and the Ki [3] was “Not Active”. The IC50 (Mu-type opioid receptor; cho-k1) was “Not Active” and the IC50 (Vasopressin V1a receptor) was “Not Active”.
For `CC[C@@H](CO)NCCN[C@@H](CC)CO` [ETHAMBUTOL], the IC50 (Cytochrome P450 2C19) was “Not Active”, the Ki (Cytochrome P450 2C19) was “Not Active” and the IC50 [1] was “Not Active”. The Ki [1] was “Not Active”, the IC50 (Carbonic anhydrase 2) was “Not Active” and the IC50 (Neutrophil elastase) was “Not Active”. The IC50 [2] was “Not Active”, the IC50 [3] was “Not Active” and the Ki [3] was “Not Active”. For the same compound, the IC50 (Mu-type opioid receptor; cho-k1) was “Not Active” and the IC50 (Vasopressin V1a receptor) was “Not Active”.
For `CC1(C)O[C@@H]2C[C@H]3[C@@H]4C[C@H](F)C5=CC(=O)C=C[C@]5(C)[C@H]4[C@@H](O)C[C@]3(C)[C@]2(C(=O)CO)O1` [FLUNISOLIDE], the IC50 (Cytochrome P450 2C19) was “Not Active”, the Ki (Cytochrome P450 2C19) was “Not Active” and the IC50 [1] was “Not Active”. For the same compound, the Ki [1] was “Not Active”, the IC50 (Carbonic anhydrase 2) was “Not Active” and the IC50 (Neutrophil elastase) was “Not Active”. For the same compound, the IC50 [2] was “Not Active”, the IC50 [3] was “Not Active” and the Ki [3] was “Not Active”. For the same compound, the IC50 (Mu-type opioid receptor; cho-k1) was “Not Active” and the IC50 (Vasopressin V1a receptor) was “Not Active”.
For `CC1(C)O[C@@H]2C[C@H]3[C@@H]4C[C@H](F)C5=CC(=O)C=C[C@]5(C)[C@@]4(F)[C@@H](O)C[C@]3(C)[C@]2(C(=O)CO)O1` [FLUOCINOLONE ACETONIDE], the IC50 (Cytochrome P450 2C19) was “Not Active”, the Ki (Cytochrome P450 2C19) was “Not Active” and the IC50 [1] was “Not Active”. The Ki [1] was “Not Active”, the IC50 (Carbonic anhydrase 2) was “Not Active” and the IC50 (Neutrophil elastase) was “Not Active”. For the same compound, the IC50 [2] was “Not Active”, the IC50 [3] was “Not Active” and the Ki [3] was “Not Active”. The IC50 (Mu-type opioid receptor; cho-k1) was “Not Active” and the IC50 (Vasopressin V1a receptor) was “Not Active”.
In the case of `CC1(C)O[C@@H]2C[C@H]3[C@@H]4C[C@H](F)C5=CC(=O)CC[C@]5(C)[C@H]4[C@@H](O)C[C@]3(C)[C@]2(C(=O)CO)O1` [FLURANDRENOLIDE], the IC50 (Cytochrome P450 2C19) is reported as “Not Active”, the Ki (Cytochrome P450 2C19) is reported as “Not Active” and the IC50 [1] is reported as “Not Active”. For the same compound, the Ki [1] was “Not Active”, the IC50 (Carbonic anhydrase 2) was “Not Active” and the IC50 (Neutrophil elastase) was “Not Active”. The IC50 [2] was “Not Active”, the IC50 [3] was “Not Active” and the Ki [3] was “Not Active”. For the same compound, the IC50 (Mu-type opioid receptor; cho-k1) was “Not Active” and the IC50 (Vasopressin V1a receptor) was “Not Active”.
In the case of `CN(C)c1ccc(C(=C2C=CC(=[N+](C)C)C=C2)c2ccc(N(C)C)cc2)cc1.[Cl-]` [GENTIAN VIOLET], the IC50 (Cytochrome P450 2C19) is reported as “Not Active”, the Ki (Cytochrome P450 2C19) is reported as “Not Active” and the IC50 [1] is reported as “Not Active”. The Ki [1] was “Not Active”, the IC50 (Carbonic anhydrase 2) was “Not Active” and the IC50 (Neutrophil elastase) was “Not Active”. The IC50 [2] was “Not Active”, the IC50 [3] was “Not Active” and the Ki [3] was “Not Active”. For the same compound, the IC50 (Mu-type opioid receptor; read-out: IC50) was 2150 nM, the Ki (Mu-type opioid receptor; read-out: Ki) was 871 nM and the IC50 (Vasopressin V1a receptor) was “Not Active”.
In the case of `Cc1ccc(S(=O)(=O)NC(=O)NN2CC3CCCC3C2)cc1` (stereo unspecified) [GLICLAZIDE], the IC50 (Cytochrome P450 2C19) is reported as “Not Active”, the Ki (Cytochrome P450 2C19) is reported as “Not Active” and the IC50 [1] is reported as “Not Active”. The Ki [1] was “Not Active”, the IC50 (Carbonic anhydrase 2) was “Not Active” and the IC50 (Neutrophil elastase) was “Not Active”. For the same compound, the IC50 [2] was “Not Active”, the IC50 [3] was “Not Active” and the Ki [3] was “Not Active”. The IC50 (Mu-type opioid receptor; cho-k1) was “Not Active” and the IC50 (Vasopressin V1a receptor) was “Not Active”.
For `CC(C)Cc1ccc(C(C)C(=O)O)cc1` (stereo unspecified) [IBUPROFEN], the IC50 (Cytochrome P450 2C19) was “Not Active”, the Ki (Cytochrome P450 2C19) was “Not Active” and the IC50 [1] was “Not Active”. The Ki [1] was “Not Active”, the IC50 (Carbonic anhydrase 2) was “Not Active” and the IC50 (Neutrophil elastase) was “Not Active”. For the same compound, the IC50 [2] was “Not Active”, the IC50 [3] was “Not Active” and the Ki [3] was “Not Active”. The IC50 (Mu-type opioid receptor; cho-k1) was “Not Active” and the IC50 (Vasopressin V1a receptor) was “Not Active”.
